Laboratory results reported in US8685992B2, “Histone deacetylase inhibitors based simultaneously on trisubstituted 1H-pyrroles and aromatic and heteroaromatic spacers” (Universidad del País Vasco, priority 2009, dated 2014).

How the values were obtained:
[1] = system: U87MG; test: Cancer cell growth inhibition, U87MG; type: cell-based, human; details: Homo sapiens, U-87 MG, Glioblastoma, 72 h treatment
Protocol: (§1) Cell culture-based assays were used to evaluate the ability of compounds of the invention to inhibit cancer cell growth inhibition.
(§2) Cells were obtained from the American Type Culture Collection (ATCC). Cells were cultured at 37° C. with 5% CO2 in the appropriate growth medium (see table below), and harvested respectively during the logarithmic growth period and counted with hemocytometer. The cell viability was over 98% by trypan blue exclusion. Cell concentrations were adjusted between 5×10^4 and 2×10^5 cells/ml with respective medium.
(§3) Stock solutions of test compounds and positive drugs Doxorubicin (Zhejiang, Haizheng, China), Paclitaxel (Beijing, Xiehe, China), Vincristin (Shenzhen Wanle, China), 5-FU (Tianjin jinyaoanjisuan, China), Irinotecan (Jiangsu Hengrui, China) and Cisplatin Nanjing zhiyao, China) were prepared in dimethyl sulphoxide (DMSO) or PBS at 20 mM.
(§4) All treatments were performed in triplicate. 10 μl drug solution was added to each well and incubated for 72 hours. At the end of the incubation, 20 μl of the freshly prepared MTS/PMS mixture solution was added to each well and incubated for 4 hours at 37° C. in a humidified, 5% CO2 atmosphere. Absorbance was read at 490 nm using SpectraMAX Plus microplate spectrophotometer. […] In order to calculate IC50, a dose-responsive curve was fitted using nonlinear regression model with a sigmoidal dose response.

[2] = system: NCI-H226; test: Cancer cell growth inhibition, NCI-H226; type: cell-based, human; details: Homo sapiens; NCI-H226, Lung Cancer, 72 h treatment
Protocol: as §1, §2, §3, §4

[3] = system: SK-MEL-5; test: Cancer cell growth inhibition, SK-MEL-5; type: cell-based, human; details: Homo sapiens; SK-MEL-5, Melanoma, 72 h treatment
Protocol: as §1, §2, §3, §4

[4] = system: OVCAR3; test: Cancer cell growth inhibition, OVCAR3; type: cell-based, human; details: Homo sapiens, OVCAR-3; OVCAR3, Ovarian Cancer, 72 h treatment
Protocol: as §1, §2, §3, §4

[5] = system: HT-1080; test: Cancer cell growth inhibition, HT-1080; type: cell-based; details: Homo sapiens; HT-1080, Fibrosarcoma, 72 h treatment
Protocol: as §1, §2, §3, §4

[6] = system: A375; test: Cancer cell growth inhibition, A375; type: cell-based, human; details: Homo sapiens, A-375; A375, Melanoma, 72 h treatment
Protocol: as §1, §2, §3, §4

[7] = system: LNCaP; test: Cancer cell growth inhibition, LNCaP; type: cell-based, human; details: Homo sapiens, Prostate Cancer, 72 h treatment
Protocol: as §1, §2, §3, §4

[8] = system: K562; test: Cancer cell growth inhibition, K562; type: cell-based, human; details: Homo sapiens; K562, CML, 72 h treatment
Protocol: as §1
as §2, with “The cell viability was over 98% by trypan blue exclusion.” left out
as §3, §4

[9] = system: Hep3B; test: Cancer cell growth inhibition, Hep3B; type: cell-based, human; details: Homo sapiens, Liver Cancer, 72 h treatment
Protocol: as §1, §2, §3, §4

[10] = system: KB; test: Cancer cell growth inhibition, KB; type: cell-based, human; details: Homo sapiens, Oral Cancer, 72 h treatment
Protocol: as §1, §2, §3, §4

[11] = system: HepG2; test: Cancer cell growth inhibition, HepG2; type: cell-based, human; details: Homo sapiens; HepG2, Liver Cancer, 72 h treatment
Protocol: as §1, §2, §3, §4

[12] = target: Human HDAC2 (Homo sapiens (Human), UniProt Q92769); test: HDAC2 fluorogenic peptide deacetylation assay; type: biochemical; details: human HDAC2, 50 μM substrate, 30° C., 2 h; read-out: IC50 (nM) of enzyme activity HDAC2
Human HDAC2, sequence (Q92769 whole entry): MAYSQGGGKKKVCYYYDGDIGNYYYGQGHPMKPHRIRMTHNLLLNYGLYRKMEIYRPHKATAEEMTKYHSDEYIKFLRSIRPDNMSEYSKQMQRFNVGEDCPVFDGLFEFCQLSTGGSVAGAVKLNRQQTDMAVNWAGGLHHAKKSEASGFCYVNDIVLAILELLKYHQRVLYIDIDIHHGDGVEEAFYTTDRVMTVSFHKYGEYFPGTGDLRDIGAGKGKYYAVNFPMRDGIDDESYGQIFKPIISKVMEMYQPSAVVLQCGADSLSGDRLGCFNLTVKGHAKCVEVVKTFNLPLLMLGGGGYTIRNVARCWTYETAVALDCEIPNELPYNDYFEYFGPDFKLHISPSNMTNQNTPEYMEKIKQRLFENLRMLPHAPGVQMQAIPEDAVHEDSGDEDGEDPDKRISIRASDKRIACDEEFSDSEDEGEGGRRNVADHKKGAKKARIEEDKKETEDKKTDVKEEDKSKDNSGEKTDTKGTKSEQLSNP

[13] = system: CNE2; test: Cancer cell growth inhibition, CNE2; type: cell-based, human; details: Homo sapiens, CNE-2; CNE2, Nasopharyngeal Cancer, 72 h treatment
Protocol: as §1, §2, §3, §4

[14] = system: HT-29; test: Cancer cell growth inhibition, HT-29; type: cell-based, human; details: Homo sapiens; HT-29, Colorectal Cancer, 72 h treatment
Protocol: as §1, §2, §3, §4

[15] = system: PC-3; test: Cancer cell growth inhibition, PC-3; type: cell-based, human; details: Homo sapiens; PC-3, Prostate Cancer, 72 h treatment
Protocol: as §1, §2, §3, §4

[16] = target: Human HDAC3/NcoR2 (Homo sapiens (Human), UniProt O15379); test: HDAC3 fluorogenic peptide deacetylation assay; type: biochemical; details: human HDAC3/NcoR2, 50 μM substrate, 30° C., 2 h; read-out: IC50 (nM) of enzyme activity HDAC3
Human HDAC3/NcoR2, sequence (O15379 whole entry): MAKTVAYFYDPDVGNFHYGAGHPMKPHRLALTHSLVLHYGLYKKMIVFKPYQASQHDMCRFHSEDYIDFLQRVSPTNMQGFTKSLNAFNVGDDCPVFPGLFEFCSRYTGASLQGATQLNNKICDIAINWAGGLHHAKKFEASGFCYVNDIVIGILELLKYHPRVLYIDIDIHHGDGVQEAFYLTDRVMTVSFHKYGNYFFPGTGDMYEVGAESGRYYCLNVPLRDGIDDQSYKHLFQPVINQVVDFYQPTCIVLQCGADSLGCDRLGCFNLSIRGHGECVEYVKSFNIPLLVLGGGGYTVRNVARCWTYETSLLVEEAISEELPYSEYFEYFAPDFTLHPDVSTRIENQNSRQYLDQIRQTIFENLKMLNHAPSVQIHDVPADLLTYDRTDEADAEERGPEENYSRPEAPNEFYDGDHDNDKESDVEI
Human HDAC3/NcoR2, sequence (Q9Y618 395-489 partner): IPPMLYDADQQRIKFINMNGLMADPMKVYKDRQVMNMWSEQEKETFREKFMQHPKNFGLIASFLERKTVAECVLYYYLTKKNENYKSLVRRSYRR

[17] = target: Human HDAC1 (Homo sapiens (Human), UniProt Q13547); test: HDAC1 fluorogenic peptide deacetylation assay; type: biochemical; details: human HDAC1, 50 μM substrate, 30° C., 2 h; read-out: IC50 (nM) of enzyme activity HDAC1
Human HDAC1, sequence (Q13547 whole entry): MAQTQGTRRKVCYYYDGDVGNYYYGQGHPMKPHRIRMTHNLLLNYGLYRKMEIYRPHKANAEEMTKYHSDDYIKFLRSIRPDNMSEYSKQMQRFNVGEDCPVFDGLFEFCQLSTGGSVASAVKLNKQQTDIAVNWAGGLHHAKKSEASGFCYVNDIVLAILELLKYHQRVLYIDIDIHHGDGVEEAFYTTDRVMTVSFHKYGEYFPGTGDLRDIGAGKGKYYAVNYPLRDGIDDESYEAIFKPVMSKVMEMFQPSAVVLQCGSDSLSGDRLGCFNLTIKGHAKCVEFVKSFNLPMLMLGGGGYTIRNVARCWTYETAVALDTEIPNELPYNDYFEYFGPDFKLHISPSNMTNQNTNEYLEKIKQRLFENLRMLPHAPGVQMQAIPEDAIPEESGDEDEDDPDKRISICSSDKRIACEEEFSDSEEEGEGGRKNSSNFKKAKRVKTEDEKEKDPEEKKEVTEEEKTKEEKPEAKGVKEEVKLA

[18] = target: Human HDAC6 (Homo sapiens (Human), UniProt Q9UBN7); test: HDAC6 fluorogenic peptide deacetylation assay; type: biochemical; details: human HDAC6, 50 μM substrate, 30° C., 2 h; read-out: IC50 (nM) of enzyme activity HDAC6
Human HDAC6, sequence (Q9UBN7 whole entry): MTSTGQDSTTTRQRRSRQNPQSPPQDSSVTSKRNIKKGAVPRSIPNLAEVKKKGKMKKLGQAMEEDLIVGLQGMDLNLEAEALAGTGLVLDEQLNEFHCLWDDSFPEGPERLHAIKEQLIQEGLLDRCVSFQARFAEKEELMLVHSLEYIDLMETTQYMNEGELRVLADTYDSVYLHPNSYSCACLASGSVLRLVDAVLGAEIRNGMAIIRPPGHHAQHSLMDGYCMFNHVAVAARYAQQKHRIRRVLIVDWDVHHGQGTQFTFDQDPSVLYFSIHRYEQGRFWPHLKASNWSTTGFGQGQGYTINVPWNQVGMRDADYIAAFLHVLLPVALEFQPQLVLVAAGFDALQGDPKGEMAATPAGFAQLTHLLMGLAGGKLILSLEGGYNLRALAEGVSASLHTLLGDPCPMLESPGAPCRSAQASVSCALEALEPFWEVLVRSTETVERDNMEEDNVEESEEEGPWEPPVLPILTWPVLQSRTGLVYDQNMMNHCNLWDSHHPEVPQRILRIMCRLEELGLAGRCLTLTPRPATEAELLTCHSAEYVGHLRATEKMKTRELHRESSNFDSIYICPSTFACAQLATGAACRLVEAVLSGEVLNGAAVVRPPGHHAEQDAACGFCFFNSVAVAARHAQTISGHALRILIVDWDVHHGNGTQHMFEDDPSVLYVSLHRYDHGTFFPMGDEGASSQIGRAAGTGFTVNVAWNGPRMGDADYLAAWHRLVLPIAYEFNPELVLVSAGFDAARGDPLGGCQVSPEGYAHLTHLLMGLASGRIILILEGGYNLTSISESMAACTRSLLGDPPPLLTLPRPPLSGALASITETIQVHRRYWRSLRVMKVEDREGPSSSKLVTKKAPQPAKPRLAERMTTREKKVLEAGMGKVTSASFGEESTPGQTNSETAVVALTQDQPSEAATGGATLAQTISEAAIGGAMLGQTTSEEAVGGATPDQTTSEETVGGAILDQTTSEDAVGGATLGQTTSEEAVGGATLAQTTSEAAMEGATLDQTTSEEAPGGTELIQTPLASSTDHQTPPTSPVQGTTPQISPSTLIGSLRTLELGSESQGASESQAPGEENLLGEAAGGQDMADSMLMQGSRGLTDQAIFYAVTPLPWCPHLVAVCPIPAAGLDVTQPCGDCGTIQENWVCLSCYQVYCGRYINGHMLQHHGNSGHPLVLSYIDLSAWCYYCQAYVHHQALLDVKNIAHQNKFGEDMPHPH

[19] = system: BGC823; test: Cancer cell growth inhibition, BGC823; type: cell-based, human; details: Homo sapiens, BGC-823; BGC823, Gastric Cancer, 72 h treatment
Protocol: as §1, §2, §3, §4

[20] = system: MCF-7; test: Cancer cell growth inhibition, MCF-7; type: cell-based, human; details: Homo sapiens, MCF7; MCF-7, Breast Cancer, 72 h treatment
Protocol: as §1, §2, §3, §4

[21] = target: Human HDAC5 (Homo sapiens (Human), UniProt Q9UQL6); test: HDAC5 fluorogenic peptide deacetylation assay; type: biochemical; details: human HDAC5, 50 μM substrate, 30° C., 2 h; read-out: IC50 (nM) of enzyme activity HDAC5
[22] = target: Human HDAC9 (Homo sapiens (Human), UniProt Q9UKV0); test: HDAC9 fluorogenic peptide deacetylation assay; type: biochemical; details: human HDAC9, 50 μM substrate, 30° C., 2 h; read-out: IC50 (nM) of enzyme activity HDAC9
Human HDAC9, sequence (Q9UKV0 other isoform, or with tags, fused parts or gaps): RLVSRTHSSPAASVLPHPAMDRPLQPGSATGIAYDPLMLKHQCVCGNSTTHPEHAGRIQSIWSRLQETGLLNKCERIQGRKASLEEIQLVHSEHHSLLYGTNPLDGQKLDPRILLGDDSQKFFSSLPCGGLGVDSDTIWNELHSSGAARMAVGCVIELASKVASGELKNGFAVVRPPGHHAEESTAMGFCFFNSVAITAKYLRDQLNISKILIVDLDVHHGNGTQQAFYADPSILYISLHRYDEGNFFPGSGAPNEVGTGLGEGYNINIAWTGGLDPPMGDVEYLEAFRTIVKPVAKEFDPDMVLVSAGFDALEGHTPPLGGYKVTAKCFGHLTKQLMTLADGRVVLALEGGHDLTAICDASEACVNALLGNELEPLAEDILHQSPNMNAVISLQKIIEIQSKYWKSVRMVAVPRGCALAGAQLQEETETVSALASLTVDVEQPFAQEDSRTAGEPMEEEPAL

[23] = target: Human HDAC10 (Homo sapiens (Human), UniProt Q969S8); test: HDAC10 fluorogenic peptide deacetylation assay; type: biochemical; details: human HDAC10, 50 μM substrate, 30° C., 2 h; read-out: IC50 (nM) of enzyme activity HDAC10
Human HDAC10, sequence (Q969S8 1-631): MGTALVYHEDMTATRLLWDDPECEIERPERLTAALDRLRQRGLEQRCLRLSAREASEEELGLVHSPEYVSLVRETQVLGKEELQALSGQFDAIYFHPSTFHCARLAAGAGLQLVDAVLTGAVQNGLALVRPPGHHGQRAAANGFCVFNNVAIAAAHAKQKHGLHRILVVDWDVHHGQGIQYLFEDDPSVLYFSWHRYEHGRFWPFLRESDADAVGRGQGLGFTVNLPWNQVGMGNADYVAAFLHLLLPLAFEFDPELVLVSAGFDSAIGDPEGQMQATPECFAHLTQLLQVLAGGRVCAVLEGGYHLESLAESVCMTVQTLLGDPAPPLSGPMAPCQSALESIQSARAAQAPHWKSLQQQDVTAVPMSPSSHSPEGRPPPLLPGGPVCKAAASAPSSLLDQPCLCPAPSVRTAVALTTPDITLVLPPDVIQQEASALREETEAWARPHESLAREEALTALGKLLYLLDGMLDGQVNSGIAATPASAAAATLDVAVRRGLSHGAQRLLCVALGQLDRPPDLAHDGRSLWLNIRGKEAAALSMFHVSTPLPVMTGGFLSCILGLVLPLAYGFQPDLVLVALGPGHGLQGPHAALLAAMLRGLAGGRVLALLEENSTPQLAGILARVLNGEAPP

[24] = target: Human HDAC4 (Homo sapiens (Human), UniProt P56524); test: HDAC4 fluorogenic peptide deacetylation assay; type: biochemical; details: human HDAC4, 50 μM substrate, 30° C., 2 h; read-out: IC50 (nM) of enzyme activity HDAC4
Human HDAC4, sequence (P56524 627-1084 limits assumed): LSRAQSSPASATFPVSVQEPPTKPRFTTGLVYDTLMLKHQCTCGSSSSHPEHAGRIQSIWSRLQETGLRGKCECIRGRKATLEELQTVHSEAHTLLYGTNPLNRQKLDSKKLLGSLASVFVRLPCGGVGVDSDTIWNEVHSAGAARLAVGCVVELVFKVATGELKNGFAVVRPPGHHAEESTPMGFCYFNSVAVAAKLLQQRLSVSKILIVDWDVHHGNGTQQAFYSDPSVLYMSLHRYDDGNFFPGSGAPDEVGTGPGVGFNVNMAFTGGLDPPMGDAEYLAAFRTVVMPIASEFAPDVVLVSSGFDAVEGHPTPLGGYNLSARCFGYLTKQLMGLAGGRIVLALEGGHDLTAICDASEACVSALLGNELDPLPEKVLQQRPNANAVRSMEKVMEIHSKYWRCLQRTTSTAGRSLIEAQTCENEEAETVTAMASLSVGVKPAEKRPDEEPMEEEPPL

[25] = target: Human HDAC11 (Homo sapiens (Human), UniProt Q96DB2); test: HDAC11 fluorogenic peptide deacetylation assay; type: biochemical; details: human HDAC11, 50 μM substrate, 30° C., 2 h; read-out: IC50 (nM) of enzyme activity HDAC11
Human HDAC11, sequence (Q96DB2 whole entry): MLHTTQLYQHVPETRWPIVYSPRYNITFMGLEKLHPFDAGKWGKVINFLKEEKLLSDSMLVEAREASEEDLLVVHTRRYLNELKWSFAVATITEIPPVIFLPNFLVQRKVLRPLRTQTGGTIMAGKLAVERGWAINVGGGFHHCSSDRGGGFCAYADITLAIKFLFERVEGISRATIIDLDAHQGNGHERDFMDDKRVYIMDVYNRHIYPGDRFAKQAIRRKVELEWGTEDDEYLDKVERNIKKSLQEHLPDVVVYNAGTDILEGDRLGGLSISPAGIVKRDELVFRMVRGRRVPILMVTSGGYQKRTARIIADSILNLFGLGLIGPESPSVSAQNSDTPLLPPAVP

Structure (SMILES) | IC50 [1] | IC50 [2] | IC50 [3] | IC50 [4] | IC50 [5] | IC50 [6] | IC50 [7] | IC50 [8] | IC50 [9] | IC50 [10] | IC50 [11] | IC50 [12] | IC50 [13] | IC50 [14] | IC50 [15] | IC50 [16] | IC50 [17] | IC50 [18] | IC50 [19] | IC50 [20] | other results
O=C(NO)c1ccc(CNC(=O)c2[nH]c(-c3ccoc3)cc2-c2ccc(O)cc2)cc1 [Example 9, 5-(3-furyl)-N-{4-[(hydroxyamino)carbonyl]benzyl}-3-(4-hydroxyphenyl)-1H-pyrrole-2-carboxamide] | 10800 nM | 11900 nM | 3340 nM | 9990 nM | 1840 nM | 10200 nM | 9910 nM | 1040 nM | 3180 nM | 2960 nM | 5010 nM | 909 nM | 9540 nM | 10700 nM | 3000 nM | 298 nM | 378 nM | 6.8 nM | 9680 nM | 4490 nM | 
O=C(NO)c1ccc(CNC(=O)c2[nH]c(-c3ccc(O)cc3)cc2-c2ccsc2)cc1 [Example 14, N-{4-[(hydroxyamino)carbonyl]benzyl}-5-(4-hydroxyphenyl)-3-(3-thienyl)-1H-pyrrole-2-carboxamide] | 9350 nM | 21300 nM | 851 nM | 25200 nM | 1530 nM | 7700 nM | 4110 nM | 1300 nM | 2700 nM | 702 nM | 2010 nM | 318 nM | 11400 nM | 5780 nM | 2400 nM | 124 nM | 84.2 nM | 0.44 nM | 13700 nM | 10100 nM | IC50 [21]: 172 nM; IC50 [22]: 277 nM; IC50 [23]: 316 nM; IC50 [24]: 956 nM; IC50 [25]: 319 nM
O=C(NO)c1ccc(CNC(=O)c2[nH]c(-c3ccc(O)cc3)cc2-c2ccoc2)cc1 [Example 15, 3-(3-furyl)-N-{4-[(hydroxyamino)carbonyl]benzyl}-5-(4-hydroxyphenyl)-1H-pyrrole-2-carboxamide] | 6560 nM | 3050 nM | 292 nM | 8050 nM | 594 nM | 3680 nM | 1720 nM | 739 nM | 859 nM | 184 nM | 2280 nM | 144 nM | 16100 nM | 2290 nM | 281 nM | 46.1 nM | 49.9 nM |  | 5140 nM | 2090 nM | IC50 [21]: 60 nM; IC50 [22]: 59 nM; IC50 [23]: 35 nM; IC50 [24]: 338 nM; IC50 [25]: 72 nM
COc1ccc(-c2cc(-c3ccoc3)c(C(=O)NCc3ccc(C(=O)NO)cc3)[nH]2)cc1 [Example 27, 3-(3-furyl)-N-{4-[(hydroxyamino)carbonyl]benzyl}-5-(4-methoxyphenyl)-1H-pyrrole-2-carboxamide] | 1390 nM | 1760 nM | 256 nM | 904 nM | 160 nM | 1040 nM | 366 nM |  | 614 nM | 315 nM | 498 nM | 157 nM | 590 nM | 1010 nM | 420 nM | 75 nM | 71 nM | 1.6 nM | 676 nM | 376 nM | IC50 [21]: 222 nM; IC50 [22]: 163 nM; IC50 [24]: 1080 nM; IC50 [25]: 341 nM
COc1ccc(-c2cc(-c3ccsc3)c(C(=O)NCc3ccc(C(=O)NO)cc3)[nH]2)cc1 [Example 28, N-{4-[(hydroxyamino)carbonyl]benzyl}-5-(4-methoxyphenyl)-3-(3-thienyl)-1H-pyrrole-2-carboxamide] | 8960 nM | 12600 nM | 3790 nM | 4760 nM | 1090 nM | 4270 nM | 3070 nM | 1370 nM | 4270 nM | 3420 nM | 1770 nM | 392 nM | 5010 nM | 25900 nM | 1310 nM | 273 nM | 184 nM | 2 nM | 7800 nM | 2760 nM | IC50 [21]: 640 nM; IC50 [22]: 478 nM; IC50 [23]: 723 nM; IC50 [24]: 2430 nM; IC50 [25]: 718 nM
